Results on one compound are retold here after US10159672B2 (PARION SCIENCES, INC., priority 2011, dated 2018).

For data set [1], the system named is Human Bronchial Epithelial. The experiment in a line: Metabolism by human bronchial epithelial cells. Particulars: apical or basolateral. Format: in vitro ADME. The protocol:
Airway epithelial cells have the capacity to metabolize drugs during the process of transepithelial absorption. Further, although less likely, it is possible that drugs can be metabolized on airway epithelial surfaces by specific ectoenzyme activities. Perhaps more likely as an ecto-surface event, compounds may be metabolized by the infected secretions that occupy the airway lumens of patients with lung disease, e.g. cystic fibrosis. Thus, a series of assays is performed to characterize the compound metabolism that results from the interaction of test compounds with human airway epithelia and/or human airway epithelial lumenal products.
In the first series of assays, the interaction of test compounds in KBR as an “ASL” stimulant are applied to the apical surface of human airway epithelial cells grown in the T-Col insert system. For most compounds, metabolism (generation of new species) is tested for using high performance liquid chromatography (HPLC) to resolve chemical species and the endogenous fluorescence properties of these compounds to estimate the relative quantities of test compound and novel metabolites. […] In instances where the fluorescence properties of the test molecule are not adequate for such characterizations, radiolabeled compounds are used for these assays. […]

A short description of the next data set: Human plasma stability. In kind it is in vitro ADME. The conditions noted are these: over 4 hours.
A short description of data set [2]: Clearance from the ocular surface (extraction from PRT threads, UPLC). In kind it is in vivo, Rats, Sprague Dawley. The protocol: Procedure for P-1046 (Compound 15 Formula I, aka I, aka P-1046, aka 1046): […]
Extraction from PRT Threads:
All PRT threads were collected in eppendorf tubes and stored at −20 C until the time of drug concentration analysis. P-1046 was extracted from threads and analyzed as follows:
• 1. 200 μL of 70% ACN (70% ACN, 30% H2O) was added into sample tubes which have threads in them. • 2. Tubes from Step 1 were vortexed for 30 seconds and sonicated for 1 minute to fully immerse the threads. • 3. The sample solutions were incubated for 4 hours at room temperature. • 4. Samples were vortexed again for 30 seconds. • 5. 75 μL, of the each sample solution (from step 4) was removed into 96-well UPLC plate with an additional 75 μL of mobile phase A (5 mM ammonium formate, 0.1% formic acid in H2O) added into each sample well. • 6. Analytical standards (10 mM, 1 mM, 100 µM, 10 µM, 1 µM, 100 nM, Buffer) were prepared identically to the thread solutions. • 7. Drug concentrations from all samples were analyzed by UPLC. Solubility and Stability Testing for Compound 15 (Formula I, aka I, aka P-1046, aka 1046): Procedure for Solubility and Stability Evaluation: • 1. Prepare 2.8% NaCl and 25 mM citrate buffer, pH of the solution 4.2. The osmolality of the solution is approximately 940 mOsM. • 2. Add appropriate amount of buffer solution to a test compound to make approximate concentration of 10 mg/mL. • 3. Vortex the solution for 15 seconds, sonicate for 30 seconds, again vortex for 60 seconds and visually observe the solution. • 4. Calculate final concentration of the solution by a spectrophotometer. • Remove a portion of solution and dilute it to 1:10 ratio. Put this solution at 50° C. for the accelerated stability study for 10 days. • Obtain stability data by HPLC analysis • 5. Prepare 2.8% NaCl and 25 mM citrate buffer, pH of the solution 4.2. The osmolality of the solution is approximately 940 mOsM. • 6. Add appropriate amount of buffer solution to a test compound to make approximate concentration of 10 mg/mL. • 7. […]

The subject of data set [3] is New Zealand White rabbits. Nature of the data set: Acute non-GLP ocular toxicity / tolerability study. Format: in vivo. As for the experimental part:
• An Acute Non-GLP Ocular Toxicity Study In New Zealand White Rabbits With P-1046
The purpose of this study was to evaluate the ocular tolerability and systemic exposure of P-1046, an inhibitor of the epithelial sodium channel (ENaC), when administered as a topical instillation to New Zealand white rabbits.
The test article (P-1046) were supplied as a light yellow white powder. The test articles were then prepared into dosing solutions for topical ocular application. Twenty-eight experimentally naïve male New Zealand White rabbits, approximately 4 months old at the outset of the study and weighing 2.6-3.1 kilograms at randomization were assigned to treatment groups as shown in the table below:
Animals were administered 50 μl of the test or control vehicle onto the globe of right eye and 50 μl of saline onto the globe of the left eye eight times (approximately one hour between each dose) in Groups 1 and 6 and four times (approximately two hours between each dose) in Group 7. Mortality and clinical observations were recorded daily. Body weights were recorded at randomization/selection and prior to sacrifice on Day 2. For blink rate assessment, eye blinks in the right eye only were counted for 3 minutes prior to treatment initiation and following all doses. Instances of wincing and pawing at the eyes during the 3-minute eye blink observation period were recorded as clinical observations. Food consumption was recorded daily. Eyes were scored according to Draize prior to treatment, following each dose and on Day 2 at approximately 24 hours post-dose. Blood for toxicokinetic evaluation was collected from animals in Group 2-7 at pre-dose, 30 minutes after the middle dose (4th dose in groups 3, 5, and 6; 2nd dose in groups 2, 4, and 7) and at 30, 60, 120 and 240 minutes following the final dose on Day 1. Blood samples for evaluation of serum chemistry parameters were collected prior to treatment initiation and at 120 and 240 min following the final dose. Urine samples were collected over a 4-hour period following the final dose. All animals were sacrificed following completion of study procedures on Day 2.

The mark [4] stands for this setting: 10 mM x 8 doses and 30 mM x 4 doses, topical ocular, rabbit.

For the compound `CN(C)C(=O)[C@H](CCCCNC(=N)N)NC(=O)[C@H](CCc1ccc(CCCCNC(=N)NC(=O)c2nc(Cl)c(N)nc2N)cc1)N(C)C` [Compound I, 3,5-diamino-6-chloro-N-(N-(4-(4-((S)-3-(dimethylamino)-4-((S)-1-(dimethylamino)-6-guanidino-1-oxohexan-2-ylamino)-4-oxobutyl)phenyl)butyl)carbamimidoyl)pyrazine-2-carboxamide], the “Metabolism by Human Bronchial Epithelial” value in data set [1] was “No metabolites detected”. Further, the “Human Plasma Stability” value in the data set “Human plasma stability” is “No metabolism detected”. The “Clearance from the ocular surface, profile” value in data set [2] (all concentrations tested) is listed as “apparent bi-phasic clearance”. Also, in data set [2] (dosed concentration >1 mM, 30 to 120 minutes post-dose), the “Concentration on ocular surface during the slow clearance phase vs IC50” value was “well above the IC50”. In addition, the “Time by which the majority of the drug is cleared from the ocular surface” value in data set [2] (post-dose, followed by slow clearance phase 30 to 120 minutes) is no more than 30 min. For the same compound, the “Appearance of eyes on Day 2” value in data set [3] (10 mM group) was “appeared normal”. In data set [3] (setting [4]), the Average blink rate result is given as “only slight increases at some time points, similarly to vehicle treated animals” and the “Cumulative Draize scores (right eye)” value was “only slight increases in Draize scoring which are not greater than those observed for vehicle treated animals”. In data set [3] (10 and 30 mM), the “Post-dose conjunctival redness, severity and incidence” value was “comparable to the vehicle controls”; the Stinging on instillation result is on record as “do not cause stinging”. Further, in data set [3] (10 and 30 mM formulations), the Ocular tolerability entry is listed as “well tolerated”.
